What was measured:
RAW264.7 cells [1] = assay: IL-1β secretion from LPS-activated RAW264.7 cells (ELISA); assay type: cell-based, mouse; details: LPS 10 μg/ml, 24 h, 0, 1, 3, 10 μg/ml compound
Protocol: Next, the effect of (±)-DHM2EQ on IL-1β secretion, which is another marker of macrophage activation in macrophage-derived RAW264.7 cells activated by […], was examined.
500 μl of RAW264.7 cells were plated in each well at a concentration of 4×10^5 cells/ml, and the plates were incubated at 37° C. for 1-day. (±)-DHM2EQ (final concentrations: 0, 1, 3, and 10 μg/ml) was then added followed by 2-hour incubation and then LPS (final concentration: 10 μg/ml) was added followed by 24-hour stimulation. After the stimulation, the cell supernatant was recovered (500 μ/l each), and centrifuged at 15000 rpm for 2 min, and the insoluble fractions were removed; the samples were thus obtained.
The amount of IL-1β secretion was examined using mouse IL-1β ELISA assay kit (R&D Systems; Minneapolis, U.S.). First, 50 μl of Reaction Buffer was added to 96-well microplates, on which mouse IL-1β antibody (polyclonal antibody) had been fixed, and 50 βl of the aforementioned sample were applied to each well of the plates. […] Subsequently, 100 μl of stopping solution was added and the OD value at 450 nm was measured using a microplate reader. Then, the concentration of IL-1β was determined from the calibration curve constructed using mouseIL-1β standard supplied with mouse IL-1β ELISA assay kit.

RAW264.7 cells [2] = assay: Intracellular NO in RAW264.7 cells observed in situ with DAF-2DA fluorescence; assay type: cell-based; details: IFN-γ + LPS, 10 μg/ml compound
Protocol: Further, to observe suppression of NO production in situ in macrophage-derived RAW264.7 cells by (±)-DHM2EQ when LPS and IFN-γ are used in combination with (±)-DHM2EQ, intracellular NO was directly observed using diaminofluorescein-2 diacetate (DAF-2DA; Daiich Pure Chemicals).
500 μl of RAW264.7 cells were first plated in each chamber on chamber slides at a concentration of 6×10^5 cells/ml. After 1 day incubation under the condition of 37° C. in 5% CO2, (±)-DHM2EQ was added, followed by 2-hour incubation. Subsequently, IFN-γ (final concentration: 100 ng/ml) and LPS (final concentration: 10 μg/ml) were added, followed by 6-hour incubation. Then, the medium was changed to DAF-2DA-containing phosphate buffered saline (PBS; 8 g/l NaCl, 0.2 g/l KCl, 0.916 g/l Na2HPO4, 0.2 g/l KH2PO4), followed by further 2-hour incubation. The fluorescence images were then observed with a fluorescence microscope.

RAW264.7 cells [3] = assay: TNF-α secretion from IL-1β-activated RAW264.7 cells; assay type: cell-based; details: IL-1β 10 ng/ml, 6 h
RAW264.7 cells [4] = assay: COX-2 production in LPS-activated RAW264.7 cells (Western blot); assay type: cell-based; details: LPS 10 μg/ml, 24 h, 1, 3, 10 μg/ml compound
From the text: It is known that macrophages activated by inflammatory stimuli and growth factor produces COX-2, a prostaglandin synthase, which is responsible for various pathological conditions such as inflammation, cancer cell proliferation, cancer development, angiogenesis, tumor metastasis, etc. Further, it has recently been known that, in systemic lupus erythematosus (SLE), which is an autoimmune disease, self-reactive T cells acquire resistance to apoptosis with increasing COX-2 expression (Nature Medicine 10, 411-415, 2004) Thus, on the assumption that use of (±)-DHM2EQ might make it possible to inhibit macrophage activation and thereby to suppress COX-2 production, the effect of (±)-DHM2EQ on COX-2 production in RAW264.7 cells derived from macrophages activated by LPS stimulation was examined.
RAW264.7 cells were plated at 4×10^6 cells/dish in a 100 mm dish (Coaster:Acton, Mass.) containing DMEM medium, and the plates were incubated overnight at 37° C. under 5% CO2. Then, (±)-DHM2EQ (final concentrations: 1, 3, and 10 μg/ml) was added followed by 2-hour incubation and then LPS (final concentration: 10 μg/ml) was added followed by 24-hour stimulation. The cells were then recovered and lysed with 65 μl of lysis buffer (50 mM Tris-HCl: pH 8.0, 1% NP-40, 20 mM EDTA, 100 mM NaVO4, 0.1 mg/ml leupeptin, 1 mM PMSF) and SDS-PAGE was performed. […]

RAW264.7 cells [5] = assay: Phagocytosis of fluorescent-labeled E. coli by activated RAW264.7 cells; assay type: cell-based
From the text: Macrophages contribute to host defense mechanism by, when infected with bacteria, engulfing the whole or part of the bacteria as foreign matter and digesting the foreign matter in the lysosome containing hydrolytic enzymes, etc. This penomenon of engulfing foreign matter, referred to as phagocytosis, is marker of macrophage activation. Thus, by using as a marker phagocytotic ability of RAW264.7 cells derived from macrophages activated by the LPS or IL-1β stimulation, the effect of (±)-DHM2EQ on macrophage activation was examined.
500 μl of RAW264.7 cells were plated in each chamber at a concentration of 4×10^5 cells/ml in chamber slides. After an overnight incubation, (±)-DHM2EQ was added, and the slides were incubated for 2 hours. LPS (final concentration: 1 μg/ml) was then added, and the slides were incubated for 10 mins and then washed with 750 μl of PBS two times. Subsequently, PBS was removed and 250 μl of the solution containing fluorescent-labeled E. coli (Molecular probes, U.S.) (i.e. a solution of fluorescent-labeled E. coli diluted with […] of PBS) was added to each chamber, and the slides were incubated for 2 hours at room temperature the cells were then washed twice in 750 μl of PBS and the phagocytic ability of macrophage-derived RAW264.7 cells were observed under a fluorescence microscope and a phase-contrast microscope. In addition, in the activation using IL-1β, the phagocytic ability of macrophage-derived RAW264.7 cells was examined in the same manner as above, except that IL-1β (final concentration: 10 ng/ml) was added in place of LPS.

J774.1 cells = assay: NO production in activated J774.1 cells (Griess reagent); assay type: cell-based; details: IFN-γ + LPS
Protocol: (§1) Since NO produced is released out of cells and mixed in the medium, being present as NO2^−, the amount of NO produced was determined by developing a color reaction and measuring optical density (OD570) after the addition of the Griess reagent to the a medium. Then, each amount of NO produced when (±)-DHM2EQ was applied at different concentrations was compared as a relative value by taking OD570 of the sample […] the addition of macrophage activating factor as 100%.
(§2) A cell suspension prepared at 4×10^5 cells/ml was plated at 200 μl/well in 96-well plates (Costar:Acton, Mass.). (±)-DHM2EQ was diluted at 0, 1, 3, and 10 μg/ml and added to each well of the plates. After 2-hour incubation under the condition of 37° C. in 5% CO2, IFN-γ (final concentration: 100 ng/ml) and LPS (final concentration: 10 μg/ml) were added to the wells and then the plates were incubated for 18 hours. 100 μl of the Griess reagent was added to each of the cell suspensions and allowed to react for 10 min, and then OD570 was measured with a microplate reader.
The effect of (±)-DHM2EQ on NO production in another activated macrophage-derived cell line, J774.1, was examined in the same manner as described in Example 1.

RAW264.7 cells [6] = assay: NO production in activated RAW264.7 cells (Griess reagent, OD570); assay type: cell-based
Protocol: It is known that, in macrophages, the expression of iNOS is induced by lipopolysaccharides such as LPS and interferons such as IFN-γ, thereby triggering NO production. Thus, by using macrophage-derived cultured cells, the influence of (±)-DHM2EQ on NO production when LPS and IFN-γ were used in combination with (±)-DHM2EQ was examined.
as §1, §2

RAW264.7 cells [7] = assay: iNOS expression in LPS-activated RAW264.7 cells (Western blot); assay type: cell-based; details: LPS 10 μg/ml, 24 h, 0, 1, 3, 10 μg/ml compound
Protocol: Since NO is produced by the enzyme iNOS within cells, it was examined whether this suppression results from suppression of iNOS expression.
Cells were plated in 100 mm dishes at 4×10^5 cells/ml, incubated overnight, and then (±)-DHM2EQ was added at final concentrations of 0, 1, 3, and 10 μg/ml. After 2 hours, LPS (final concentration: 10 μg/ml) was added to stimulate for 24 hours. Then, cell suspension was collected and centrifuged, and cells were lysed in 65 μl of prepared lysis buffer (50 mM Tris-HCl: pH 8.0, 1% NP-40, 20 mM EDTA, 100 mM NaVO4, 0.1 mg/ml leupeptin, 1 mM PMSF). Then, the supernatant of the cell lysate was isolated, each protein concentration was measured, and the predetermined mass of protein was boiled as a sample. This sample was subjected to SDS-PAGE and the proteins on the gel were transferred to a nitrocellulose membrane, which was then reacted with anti-iNOS antibody (Santa Cruz) followed by sheep anti-rabbit IgG antibody (Amersham). Subsequently, color was developed by the ECL detection system, and the signal was detected by exposing the membrane to the film (Fuji Photo Film)

RAW264.7 cells [8] = assay: IL-6 secretion from LPS-activated RAW264.7 cells (ELISA); assay type: cell-based; details: LPS 10 μg/ml, 24 h
NF-κB = assay: Inhibition of NF-κB activation; details: compared with (±)-DHM2EQ

Structure (SMILES) | IL-1β secretion (RAW264.7 cells [1]) | intracellular NO production (DAF-2DA fluorescence) (RAW264.7 cells [2]) | TNF-α production (RAW264.7 cells [3]) | COX-2 production (RAW264.7 cells [4]) | phagocytosis of E. coli (RAW264.7 cells [5]; IL-1β stimulation, pretreatment with 10 μg/ml compound) | phagocytosis of E. coli (RAW264.7 cells [5]; LPS stimulation, pretreatment with 10 μg/ml compound) | phagocytosis of E. coli (RAW264.7 cells [5]; LPS stimulation, pretreatment, concentration series) | NO production (J774.1 cells; 10 μg/ml compound) | NO production (J774.1 cells; concentration series) | NO production (RAW264.7 cells [6]; IFN-γ 100 ng/ml + LPS 10 μg/ml, 18 h, 0, 1, 3, 10 μg/ml compound) | NO production (RAW264.7 cells [6]; IFN-γ + LPS, 10 μg/ml compound) | iNOS expression (RAW264.7 cells [7]) | IL-6 production (RAW264.7 cells [8]) | inhibitory effect on NF-κB activation (NF-κB)
O=C(NC1=CC(=O)C2OC2C1O)c1ccccc1O (racemic) [(±)-DHM2EQ, 5,6-epoxy-4-hydroxy-3-salicyloylamino-2-cyclohexenone] | suppresses the expression of IL-1β depending on its treatment concentration | suppressed to the control level | suppresses TNF-α production depending on its treatment concentration | suppresses COX-2 production depending on its treatment concentration | suppressed almost to the same level as the control | suppressed almost to the same level as the control | suppressed depending on its treatment concentration | suppressed to the control level | suppressed depending on (±)-DHM2EQ treatment concentration | suppressed depending on the concentration of (±)-DHM2EQ added | suppressed almost to the control level | suppresses the expression of iNOS depending on its treatment concentration | suppresses IL-6 production depending on its treatment concentration | 
O=C(NC1=CC(=O)[C@H]2O[C@H]2[C@H]1O)c1ccccc1O [(−)-DHM2EQ] |  |  |  |  |  |  |  |  |  |  |  |  |  | stronger inhibitory effect on NF-κB activation than (±)-DHM2EQ
